In brackets after ≈: the same amount, converted by molar mass. Structures can show the parent of a compound that is named as a salt. Where two headings read alike, the source gives them in different places. Values belong to the compound of their own block, whether it stands above or below them.
What was measured:
[1] = Description: Approximately four (4) grams of rasagiline base was introduced into the sublimation reservoir of a standard Sigma-Aldrich glass sublimation apparatus, (Cat. No. Z221171-1EA) with internal diameter of 3 cm. The apparatus was equipped with vacuum pump, vacuumeter and circulating ice-water bath for cooling of the apparatus' sublimation head. The apparatus was then closed and circulation of coolant at 0 to 1° C. was started. The vacuum was then built to a pressure (“P”) of 2-3 mbar and the reservoir was introduced into thermostatic water bath maintained at temperature (“T”) of 21° C.
The process was controlled by visual observation of the sublimed solid forming on the sublimation head. After sublimation completed the operation time was recorded, the apparatus was opened and the sublimed solid was removed from the head and weighed.
The mean sublimation rate was calculated as follows:
Mean Sublimation Rate Rs1: Rs1=m/M·t [gg^−1hr^−1]
Mean Sublimation Rate Rs2: Rs2=m/S·t [gm^−2hr^−1]
Mean Relative Sublimation Rate R: R=m·100/M·t [%/hr] m—mass of sublimed material, g M—mass of starting material, g t=sublimation time, hrs S=sublimation area (apparatus section area), m^2

[2] = Stability test for dried Rasagiline Tartrate Pure; assay type: physicochemical; settings: for Chromatographic purity by HPLC: 1-Aminoindan / Chromatographic purity by HPLC: Any other / Description / ID by HPLC / L.O.D. / S-isomer by HPLC: RT, polyethylene bag
[3] = Stability test for wet Rasagiline Tartrate Pure; assay type: physicochemical; settings: for L.O.D.: samples dried prior to analysis; for Description: wet with isopropanol and water; for Description / Chromatographic purity by HPLC: 1-Aminoindan / Chromatographic purity by HPLC: Any other / ID by HPLC / S-isomer by HPLC: RT, polyethylene bag; for Chromatographic purity by HPLC: 1-Aminoindan / Chromatographic purity by HPLC: Any other / ID by HPLC / S-isomer by HPLC: wet
From the text: Rasagiline Tartrate Pure wet with isopropanol and water was stored at ambient temperature (RT) in polyethylene bag. The solid was sampled, dried to constant weight and analyzed.

[4] = for Description: wet with water, RT, protected from light
Description: Rasagiline Base wet with water produced in Example […] was stored at ambient temperature (RT) in polyethylene bag inside aluminium laminate bag protected from light. The solid was sampled, dried to constant weight under vacuum and analyzed. The sampling and analysis were performed at time zero, than after 2 weeks and 4 weeks from zero time.

[5] = alcohols, acetone, ethyl acetate, toluene, diethyl ether, dioxane, hexane and n-heptane
[6] = low levels of volatiles by KF and TGA
[7] = 48 hrs in air; 7-8° C. or ambient temperature
physchem = settings: 25 °C
[8] = Ex. 21, oil, 20 mbar, 22 °C, 8.0 hr
[9] = Ex. 22, oil, 20 mbar, 35 °C, 5.33 hr
[10] = Ex. 23, oil, 2-3 mbar, 22 °C, 3.0 hr
[11] = Ex. 24, oil, 2-3 mbar, 60 °C, 1.3 hr
[12] = Ex. 12, solid, 2-3 mbar, 21 °C, 8.0 hr
[13] = Ex. 13, solid, 2-3 mbar, 35 °C, 5.33 hr
[14] = Ex. 14, melt, 2-3 mbar, 60 °C, 4.0 hr
[15] = Ex. 15, solid, 20 mbar, 21 °C, 8.5 hr
[16] = Ex. 16, solid, 40 mbar, 21 °C, 8.5 hr
[17] = Ex. 17, solid, 40 mbar, 35 °C, 5.33 hr
[18] = Ex. 18, solid, 20 mbar, 35 °C, 5.33 hr
[19] = Ex. 19, melt, 40 mbar, 60 °C, 5.33 hr
[20] = Ex. 20, melt, 20 mbar, 60 °C, 5.33 hr

Time limitation ([3]; Storage temperature R.T.): One month
L.O.D. ([3]; 2 weeks): 0.05%
L.O.D. ([3]; 4 weeks): 0.04%
L.O.D. ([3]; Start (t = 0)): 0.01%
Description ([3]; 2 weeks): White
Description ([3]; 4 weeks): White
Description ([3]; Start (t = 0)): White
Chromatographic purity by HPLC: 1-Aminoindan ([3]; 2 weeks): L.T. 0.03%
Chromatographic purity by HPLC: Any other ([3]; 2 weeks): L.T. 0.03%
ID by HPLC ([3]; 2 weeks): Conforms
S-isomer by HPLC ([3]; 2 weeks): L.T. 0.3%
Chromatographic purity by HPLC: 1-Aminoindan ([3]; 4 weeks): L.T. 0.03%
Chromatographic purity by HPLC: Any other ([3]; 4 weeks): L.T. 0.03%
ID by HPLC ([3]; 4 weeks): Conforms
S-isomer by HPLC ([3]; 4 weeks): L.T. 0.3%
Chromatographic purity by HPLC: 1-Aminoindan ([3]; Start (t = 0)): L.T. 0.03%
Chromatographic purity by HPLC: Any other ([3]; Start (t = 0)): L.T. 0.03%
ID by HPLC ([3]; Start (t = 0)): Conforms
S-isomer by HPLC ([3]; Start (t = 0)): L.T. 0.3%
Compound: C#CCN[C@@H]1CCc2ccccc21.C#CCN[C@@H]1CCc2ccccc21.O=C(O)C(O)C(O)C(=O)O [Wet RB-2087]

solubility (physchem; pH 3.3, water): 570 mg/mL
solubility (physchem; pH 6.7, water): 92 mg/mL
Compound: C#CCN[C@@H]1CCc2ccccc21 [rasagiline mesylate]

More lines, now with the values behind:

Compound: C#CCNC1CCc2ccccc21 (racemic) [Rac.PAI oil, N-propargyl-1-aminoindan, reference compound]
Mean relative sublimation rate R [1, 8]: 0.0 %/hr
Mean sublimation rate Rs1 [1, 8]: 0.0 g/g/h
Mean sublimation rate Rs2 [1, 8]: 0.0 g/hr/m^2
Sublimed solid fraction [1, 8]: 0.0%
Mean relative sublimation rate R [1, 9]: 0.0 %/hr
Mean sublimation rate Rs1 [1, 9]: 0.0 g/g/h
Mean sublimation rate Rs2 [1, 9]: 0.0 g/hr/m^2
Sublimed solid fraction [1, 9]: 0.0%
Mean relative sublimation rate R [1, 10]: 0.08 %/hr
Mean sublimation rate Rs2 [1, 10]: 3.537 g/hr/m^2
Sublimed solid fraction [1, 10]: 0.25%
−log Rs1 [1, 10]: 3.08
Mean sublimation rate Rs1 ([1]; Ex. 23, oil, 2-3 mbar, 22 °C, 3.0 hr, listed as racemic PAI): 0.000833 g/g/h
Mean relative sublimation rate R [1, 11]: 2.5 %/hr
Mean sublimation rate Rs2 [1, 11]: 101.16 g/hr/m^2
Sublimed solid fraction [1, 11]: 3.25%
−log Rs1 [1, 11]: 1.60
Mean sublimation rate Rs1 ([1]; Ex. 24, oil, 2-3 mbar, 60 °C, 1.3 hr, listed as racemic PAI): 0.025 g/g/h

Compound: C#CCN[C@@H]1CCc2ccccc21.C#CCN[C@@H]1CCc2ccccc21.O=C(O)C(O)C(O)C(=O)O [Dry GA-18062]
Chromatographic purity by HPLC: 1-Aminoindan ([2]; 2 weeks): L.T. 0.03%
Chromatographic purity by HPLC: Any other ([2]; 2 weeks): L.T. 0.03%
Description ([2]; 2 weeks): White
ID by HPLC ([2]; 2 weeks): Conforms
L.O.D. ([2]; 2 weeks): 0.16%
S-isomer by HPLC ([2]; 2 weeks): L.T. 0.3%
Chromatographic purity by HPLC: 1-Aminoindan ([2]; 4 weeks): L.T. 0.03%
Chromatographic purity by HPLC: Any other ([2]; 4 weeks): L.T. 0.03%
Description ([2]; 4 weeks): White
ID by HPLC ([2]; 4 weeks): Conforms
L.O.D. ([2]; 4 weeks): 0.03%
S-isomer by HPLC ([2]; 4 weeks): L.T. 0.3%
Chromatographic purity by HPLC: 1-Aminoindan ([2]; Start (t = 0)): L.T. 0.03%
Chromatographic purity by HPLC: Any other ([2]; Start (t = 0)): L.T. 0.03%
Description ([2]; Start (t = 0)): White
ID by HPLC ([2]; Start (t = 0)): Conforms
L.O.D. ([2]; Start (t = 0)): 0.03%
S-isomer by HPLC ([2]; Start (t = 0)): L.T. 0.3%
Time limitation ([2]; Storage temperature R.T.): One month

Compound: C#CCN[C@@H]1CCc2ccccc21 [rasagiline base, R(+)-N-propargyl-1-aminoindan]
Mean relative sublimation rate R [1, 12]: 0.0312 %/hr
Mean sublimation rate Rs1 [1, 12]: 3.12e-05 g/g/h
Mean sublimation rate Rs2 [1, 12]: 1.333 g/hr/m^2
Sublimed solid fraction [1, 12]: 0.25%
−log Rs1 [1, 12]: 4.5
Mean relative sublimation rate R [1, 13]: 0.116 %/hr
Mean sublimation rate Rs1 [1, 13]: 0.00117 g/g/h
Mean sublimation rate Rs2 [1, 13]: 4.978 g/hr/m^2
Sublimed solid fraction [1, 13]: 0.62%
−log Rs1 [1, 13]: 2.93
Mean relative sublimation rate R [1, 14]: 5.6 %/hr
Mean sublimation rate Rs1 [1, 14]: 0.0562 g/g/h
Mean sublimation rate Rs2 [1, 14]: 236.19 g/hr/m^2
Sublimed solid fraction [1, 14]: 22.4%
−log Rs1 [1, 14]: 1.25
Mean relative sublimation rate R [1, 15]: 0.0 %/hr
Mean sublimation rate Rs1 [1, 15]: 0.0 g/g/h
Mean sublimation rate Rs2 [1, 15]: 0.0 g/hr/m^2
Sublimed solid fraction [1, 15]: 0.0%
Mean relative sublimation rate R [1, 16]: 0.0 %/hr
Mean sublimation rate Rs1 [1, 16]: 0.0 g/g/h
Mean sublimation rate Rs2 [1, 16]: 0.0 g/hr/m^2
Sublimed solid fraction [1, 16]: 0.0%
Mean relative sublimation rate R [1, 17]: 0.0375 %/hr
Mean sublimation rate Rs1 [1, 17]: 0.000375 g/g/h
Mean sublimation rate Rs2 [1, 17]: 1.593 g/hr/m^2
Sublimed solid fraction [1, 17]: 0.20%
−log Rs1 [1, 17]: 3.42
Mean relative sublimation rate R [1, 18]: 0.0506 %/hr
Mean sublimation rate Rs1 [1, 18]: 0.000515 g/g/h
Mean sublimation rate Rs2 [1, 18]: 2.192 g/hr/m^2
Sublimed solid fraction [1, 18]: 0.27%
−log Rs1 [1, 18]: 3.29
Mean relative sublimation rate R [1, 19]: 0.116 %/hr
Mean sublimation rate Rs1 [1, 19]: 0.00117 g/g/h
Mean sublimation rate Rs2 [1, 19]: 4.978 g/hr/m^2
Sublimed solid fraction [1, 19]: 0.62%
−log Rs1 [1, 19]: 2.93
Mean relative sublimation rate R [1, 20]: 0.769 %/hr
Mean sublimation rate Rs1 [1, 20]: 0.00764 g/g/h
Mean sublimation rate Rs2 [1, 20]: 32.26 g/hr/m^2
Sublimed solid fraction [1, 20]: 4.1%
−log Rs1 [1, 20]: 2.12
Assay by HPLC ([4]; 2 weeks): 100.5 % on dry basis
Enantiomeric purity by HPLC (S-isomer) ([4]; 2 weeks): L.T. 0.1%
ID by HPLC ([4]; 2 weeks): Conforms
IDD by HPLC: 1-Aminoindan ([4]; 2 weeks): L.T. 0.02%
IDD by HPLC: 1-Indanone ([4]; 2 weeks): L.T. 0.02%
IDD by HPLC: 3-PAIO ([4]; 2 weeks): L.T. 0.02%
IDD by HPLC: Any other ([4]; 2 weeks): L.T. 0.02%
IDD by HPLC: Total ([4]; 2 weeks): L.T. 0.02%
Water content by CKF ([4]; 2 weeks): 0.04%
Assay by HPLC ([4]; 4 weeks): 100.7 % on dry basis
Enantiomeric purity by HPLC (S-isomer) ([4]; 4 weeks): L.T. 0.1%
ID by HPLC ([4]; 4 weeks): Conforms
IDD by HPLC: 1-Aminoindan ([4]; 4 weeks): L.T. 0.02%
IDD by HPLC: 1-Indanone ([4]; 4 weeks): L.T. 0.02%
IDD by HPLC: 3-PAIO ([4]; 4 weeks): L.T. 0.02%
IDD by HPLC: Any other ([4]; 4 weeks): L.T. 0.02%
IDD by HPLC: Total ([4]; 4 weeks): L.T. 0.02%
Water content by CKF ([4]; 4 weeks): 0.03%
Assay by HPLC ([4]; Start (t = 0)): 100.1 % on dry basis
Enantiomeric purity by HPLC (S-isomer) ([4]; Start (t = 0)): L.T. 0.1%
ID by HPLC ([4]; Start (t = 0)): Conforms
IDD by HPLC: 1-Aminoindan ([4]; Start (t = 0)): L.T. 0.02%
IDD by HPLC: 1-Indanone ([4]; Start (t = 0)): L.T. 0.02%
IDD by HPLC: 3-PAIO ([4]; Start (t = 0)): L.T. 0.02%
IDD by HPLC: Any other ([4]; Start (t = 0)): L.T. 0.02%
IDD by HPLC: Total ([4]; Start (t = 0)): L.T. 0.02%
Water content by CKF ([4]; Start (t = 0)): 0.04%
Time limitation ([4]; Storage temperature +2-+8° C.): One month
Description ([4]; 2 weeks): White solid
Description ([4]; 4 weeks): White solid
Description ([4]; Start (t = 0)): White solid
solubility in organic solvents [5]: freely soluble
hygroscopicity [6]: not hygroscopic
effect of holding as ethanol solution on yield and quality of solid product [7]: do not affect the yield and quality of solid product
solubility (physchem; pH 11, water): 5.5 mg/mL (≈ 32.1 mM)

Source: patent US8163960B2, “Process for preparing and drying solid rasagiline base” (Teva Pharmaceutical Industries, Ltd., priority 2008, dated 2012)
